Measurements from patent publication US11970469B2 (Oxford University Innovation Limited, priority 2018, dated 2024).

Target: GST-human KRas166 (G12V) GPPNHP (Homo sapiens, UniProt P01116, G12V)
Experiment: KRas small-molecule screening by SPR (BIACORE T200)
Assay type: binding
Parameters: KRAS166 (G12V) was immobilized between 10,000 to 15,000 Response Units; made in house; host or cells: E. coli C41(DE3)
Details: compounds at final concentration of 100 uM; immobilised KRAS166 (G12V) GPPNHP; no unit printed (method speaks of response units)
Experimental: For SPR assays pGEX-KRAS(G12V) plasmid was transformed into E. coli C41(DE3). Bacterial cells were cultured at 37° C. to an OD600 of 0.6 and induced with IPTG (final 0.1 mM) at 18° C. over night. The GST fusion proteins were extracted from bacteria pellets after cell disruption in 140 mM NaCl, 2.7 mM KCl, 10 mM NaH2PO4, 1.8 mM KH2PO4, 1 mM EDTA, 2 mM MgCl2 pH 7.4 and purified by glutathione-sepharose column chromatography (GE Healthcare), eluting with 50 mM Tris-HCl pH8.0, 10 mM reduced glutathione, 1 mM DTT, 2 mM MgCl2. The eluted proteins were dialysed against 50 mM Tris-HCl pH8.0, 1 mM DTT, 2 mM MgCl2 and concentrated to 10 mg/ml using a Biomax-30 ULTRAFREE-15 centrifugal filter device (Millipore). Purified KRAS protein was loaded with GPPNHP as described elsewhere (Pacold et al., 2000). Loaded protein was then purified by gel filtration on a HiLoad Superdex-75 HR column (GE Healthcare) in 1×PBS pH7.4, 5 mM MgCl2 and concentrated for storage. Protocol for KRas small-molecule screening and affinity measurements by SPR
To a previously immobilized CM5 chip (GE Healthcare BR-1005-30) with anti GST antibody via amine coupling method, GST in channel 1 and GST-human KRas166 (G12V) GPPNHP in channel 2 were immobilised. GST was immobilised between 2,000 and 5,000 Response units. KRAS166 (G12V) was immobilized between 10,000 to 15,000 Response Units. […]

SPR: 33
SMILES: COc1cccc(-c2ccc(Nc3ccc(C(=O)NCC4CCN(C(=O)OC(C)(C)C)CC4)cc3)cc2)c1 [Example 19]
